This note sets out measurements from ChEMBL document CHEMBL3751769, “Design, synthesis, and evaluation of semi-conservative mono-carbonyl analogs of curcumin as anti-inflammatory agents against lipopolysaccharide-induced acute lung injury” (Medchemcomm, 2015).

Structures are written as SMILES. Calls of active or inactive are those of the source. The rule behind the calls is not given here.

Data set [1] has as its system RAW264.7. The experiment in a line: Anti-inflammatory activity in mouse RAW264.7 cells assessed as inhibition of IL-6 production at 10 uM preincubated for 30 mins followed by 0.5 ug/ml LPS addition after 24 hrs by ELISA. The data set is classed as functional. A general note: An ELISA detects its analyte on a solid surface through an enzyme-linked reagent.
The test system of data set [2] is RAW264.7. The experiment in a line: Anti-inflammatory activity in mouse RAW264.7 cells assessed as inhibition of TNFalpha production at 10 uM preincubated for 30 mins followed by 0.5 ug/ml LPS addition after 24 hrs by ELISA. The data set is classed as functional.
Data set [3] can be described thus: Cytotoxicity against human HL-7702 cells assessed as cell viability at 10 uM after 24 hrs by MTT assay. The class given is cell-based. Conditions: l02, 24 h. (Tetrazolium assays rely on reduction of a dye to a coloured formazan, in cell work by metabolically active cells.)
Data set [4] has as its system RAW264.7. Briefly: Anti-inflammatory activity in mouse RAW264.7 cells assessed as inhibition of IL-6 production preincubated for 30 mins followed by 0.5 ug/ml LPS addition after 24 hrs by ELISA. The class given is functional, cell-based.
Data set [5] relates to RAW264.7. The experiment in a line: Anti-inflammatory activity in mouse RAW264.7 cells assessed as inhibition of TNFalpha production preincubated for 30 mins followed by 0.5 ug/ml LPS addition after 24 hrs by ELISA. The data set is classed as functional, cell-based.

For the molecule `COc1cc(/C=C2\CCC/C(=C\c3ccc(Cl)cc3)C2=O)ccc1O`, the inhibition entry with RAW264.7 [1] and in the data set with RAW264.7 [2] was “Active” in each case. Besides, the Activity entry in data set [3] is recorded as “Non-toxic”.

Regarding `COc1cc(/C=C2\CCC/C(=C\c3ccc(Cl)c([N+](=O)[O-])c3)C2=O)ccc1O`, the inhibition entry in the data set with RAW264.7 [1] and with RAW264.7 [2] was “Active” in each case. Besides, the Activity result in data set [3] was “Non-toxic”.

Take `COc1cc(/C=C2\CCC/C(=C\c3cc(OC)c(OC)c(OC)c3)C2=O)ccc1O`: the inhibition result in the data set with RAW264.7 [1] and with RAW264.7 [2] was “Active” in each case. The Activity result in data set [3] was “Non-toxic”.

With `COc1ccc(/C=C2\CCC/C(=C\c3ccc(O)c(OC)c3)C2=O)c(OC)c1`, the inhibition entry in the data set on RAW264.7 [1] and in the data set on RAW264.7 [2] was “Active” each time. In addition, the Activity entry in data set [3] is “Non-toxic”.

`COc1cc(/C=C2\CCC/C(=C\c3ccccc3Br)C2=O)ccc1O`: the inhibition result in the data set with RAW264.7 [1] and with RAW264.7 [2] was “Active” in each case. The Activity entry in data set [3] is listed as “Non-toxic”.

Take `COc1cc(/C=C2\CCC/C(=C\c3cc(F)ccc3F)C2=O)ccc1O`: the inhibition result with RAW264.7 [1] and with RAW264.7 [2] was “Active” in each case. Moreover, the Activity result in data set [3] is “Non-toxic”.

Turning to `COc1cc(/C=C2\CCC/C(=C\c3ccc(F)c(F)c3)C2=O)ccc1O`, the inhibition result with RAW264.7 [1] and in the data set with RAW264.7 [2] was “Active” in each case. In data set [3], the Activity result is listed as “Non-toxic”.

`COc1cc(/C=C2\CCC/C(=C\c3cccc(OC)c3O)C2=O)ccc1O`: the inhibition result in the data set with RAW264.7 [1] and with RAW264.7 [2] was “Active” each time. For the same molecule, the Activity result in data set [3] is on record as “Non-toxic”.

For the molecule `COc1cc(/C=C2\CC/C(=C\c3ccc4ccccc4c3)C2=O)ccc1O`, the inhibition result with RAW264.7 [1] and in the data set with RAW264.7 [2] was “Active” throughout. The Activity entry in data set [3] is “Non-toxic”.

Regarding `COc1cc(/C=C2\CCC/C(=C\c3ccccc3C(F)(F)F)C2=O)ccc1O`, the inhibition result in the data set on RAW264.7 [1] and in the data set with RAW264.7 [2] was “Active” in each case. For the same molecule, the Activity result in data set [3] was “Non-toxic”.

As for `COc1cc(/C=C2\CCC/C(=C\c3ccc4ccccc4c3)C2=O)ccc1O`, the inhibition entry in the data set on RAW264.7 [1] and with RAW264.7 [2] was “Active” throughout. Also, in data set [3], the Activity entry is “Non-toxic”.

As for `COc1cc(/C=C2\CCC/C(=C\c3cccc(Cl)c3Cl)C2=O)ccc1O`, the inhibition result in the data set on RAW264.7 [1] and in the data set on RAW264.7 [2] was “Active” in each case. Besides, in data set [3], the Activity entry is “Non-toxic”.

On to `COc1cc(/C=C2\CC/C(=C\c3cc(C)ccc3C)C2=O)ccc1O`, for which the “inhibition (INH)” value in the data set on RAW264.7 [1] and in the data set with RAW264.7 [2] was >50% throughout. Also, the Activity result in data set [3] is on record as “Non-toxic”. For the same molecule, the inhibition entry with RAW264.7 [4] and in the data set with RAW264.7 [5] was “Dose-dependent effect” throughout.

In the case of `COc1ccc(OC)c(/C=C2\CCC/C(=C\c3ccc(O)c(OC)c3)C2=O)c1`, the inhibition result in the data set on RAW264.7 [1] and in the data set on RAW264.7 [2] was “Active” throughout. For the same molecule, the Activity result in data set [3] is “Non-toxic”.

As to `COc1cc(/C=C2\CCC/C(=C\c3ccc(O)c(O)c3)C2=O)ccc1O`, the inhibition result with RAW264.7 [1] and in the data set on RAW264.7 [2] was “Active” each time. In addition, the Activity result in data set [3] is on record as “Non-toxic”.

For `COc1ccc(/C=C2\CC/C(=C\c3ccc(O)c(OC)c3)C2=O)c(F)c1`, the inhibition entry in the data set on RAW264.7 [1] and in the data set with RAW264.7 [2] was “Active” throughout. For the same molecule, the Activity result in data set [3] was “Non-toxic”.

As to `COc1cc(/C=C2\CCC/C(=C\c3ccc(O)cc3)C2=O)ccc1O`, the inhibition result with RAW264.7 [1] and with RAW264.7 [2] was “Active” throughout. Moreover, in data set [3], the Activity result is “Non-toxic”.

As to `COc1cc(/C=C2\CCC/C(=C\c3ccc(F)c(Br)c3)C2=O)ccc1O`, the inhibition entry in the data set with RAW264.7 [1] and with RAW264.7 [2] was “Active” throughout. In addition, in data set [3], the Activity result is listed as “Non-toxic”.

On to `COc1cc(/C=C2\CC/C(=C\c3cc4ccccc4[nH]3)C2=O)ccc1O`, for which the “inhibition (INH)” value in the data set with RAW264.7 [1] and in the data set with RAW264.7 [2] was >50% in each case. Further, the Activity result in data set [3] was “Non-toxic”.

`COc1cc(/C=C2\CCC/C(=C\c3ccccc3F)C2=O)ccc1O`: the inhibition entry in the data set on RAW264.7 [1] and in the data set on RAW264.7 [2] was “Active” throughout. Moreover, the Activity entry in data set [3] is “Non-toxic”.

Take `COc1cc(/C=C2\CCC/C(=C\c3cccc(OC)c3OC)C2=O)ccc1O`: the inhibition result in the data set with RAW264.7 [1] and in the data set with RAW264.7 [2] was “Active” in each case. The Activity entry in data set [3] is reported as “Non-toxic”.

Turning to `COc1cc(/C=C2\CC/C(=C\c3cc4c(cc3Br)OCO4)C2=O)ccc1O`, the inhibition entry with RAW264.7 [1] and in the data set on RAW264.7 [2] was “Active” each time. Also, the Activity entry in data set [3] is reported as “Non-toxic”.

In the case of `COc1cc(/C=C2\CCC/C(=C\c3c(F)cccc3F)C2=O)ccc1O`, the inhibition entry with RAW264.7 [1] and with RAW264.7 [2] was “Active” in each case. In addition, in data set [3], the Activity entry was “Non-toxic”.

With `COc1ccc(/C=C2\CCC/C(=C\c3ccc(O)c(OC)c3)C2=O)cc1O`, the “inhibition (INH)” value in the data set on RAW264.7 [1] and with RAW264.7 [2] was >50% in each case. The Activity result in data set [3] is reported as “Non-toxic”. Moreover, the inhibition entry in the data set on RAW264.7 [4] and in the data set on RAW264.7 [5] was “Dose-dependent effect” throughout.

`COc1cc(/C=C2\CCC/C(=C\c3c(C)cc(C)cc3C)C2=O)ccc1O`: the inhibition entry with RAW264.7 [1] and in the data set with RAW264.7 [2] was “Active” in each case. The Activity result in data set [3] was “Non-toxic”.

Turning to `COc1cc(/C=C2\CCC/C(=C\c3ccccc3OC)C2=O)ccc1O`, the inhibition result in the data set with RAW264.7 [1] and in the data set with RAW264.7 [2] was “Active” in each case. Further, in data set [3], the Activity entry was “Non-toxic”.

For the molecule `COc1cc(/C=C2\CCC/C(=C\c3ccc(O)c(Br)c3)C2=O)ccc1O`, the “inhibition (INH)” value with RAW264.7 [1] and in the data set on RAW264.7 [2] was >50% in each case. In data set [3], the Activity result is on record as “Non-toxic”. Besides, the inhibition entry in the data set on RAW264.7 [4] and with RAW264.7 [5] was “Dose-dependent effect” each time.

For `COc1ccc(/C=C2\CCC/C(=C\c3ccc(O)c(OC)c3)C2=O)cc1`, the inhibition result in the data set with RAW264.7 [1] and in the data set with RAW264.7 [2] was “Active” throughout. The Activity result in data set [3] is given as “Non-toxic”.

`COc1cc(/C=C2\CCC/C(=C\c3cc4c(cc3Br)OCO4)C2=O)ccc1O`: the inhibition entry with RAW264.7 [1] and in the data set on RAW264.7 [2] was “Active” throughout. Besides, the Activity result in data set [3] is on record as “Non-toxic”.

As for `COc1cc(/C=C2\CCC/C(=C\c3ccc(OC)c(OC)c3)C2=O)ccc1O`, the inhibition result in the data set on RAW264.7 [1] and in the data set with RAW264.7 [2] was “Active” throughout. Further, the Activity result in data set [3] is listed as “Non-toxic”.

Turning to `COc1cc(/C=C2\CCC/C(=C\c3cc(Br)c(O)c(Br)c3)C2=O)ccc1O`, the inhibition entry with RAW264.7 [1] and in the data set with RAW264.7 [2] was “Active” in each case. Moreover, in data set [3], the Activity result is recorded as “Non-toxic”.

With `COc1cc(/C=C2\CCC/C(=C\c3ccc(Cl)c(Cl)c3)C2=O)ccc1O`, the inhibition result in the data set with RAW264.7 [1] and in the data set with RAW264.7 [2] was “Active” in each case. For the same molecule, the Activity result in data set [3] was “Non-toxic”.

Regarding `COc1cc(/C=C2\CC/C(=C\c3c[nH]c4ncccc34)C2=O)ccc1O`, the inhibition result in the data set with RAW264.7 [1] and with RAW264.7 [2] was “Active” throughout. The Activity result in data set [3] was “Non-toxic”.

`COc1cc(/C=C2\CCC/C(=C\c3cccc(F)c3)C2=O)ccc1O`: the inhibition result in the data set on RAW264.7 [1] and in the data set on RAW264.7 [2] was “Active” each time. Further, in data set [3], the Activity entry was “Non-toxic”.

Take `CCOc1ccc(Br)cc1/C=C1\CCC/C(=C\c2ccc(O)c(OC)c2)C1=O`: the inhibition entry in the data set on RAW264.7 [1] and with RAW264.7 [2] was “Active” each time. Moreover, in data set [3], the Activity entry was “Non-toxic”.

With `COc1cc(/C=C2\CCC/C(=C\c3ccc(Cl)cc3Cl)C2=O)ccc1O`, the inhibition entry in the data set on RAW264.7 [1] and in the data set on RAW264.7 [2] was “Active” each time. The Activity result in data set [3] was “Non-toxic”.
